Data published in patent US6875768B1, “Phthalamide derivatives, intermediates in the production thereof, and agricultural/horticultural insecticides and method for using the same” (Nihon Nohyako Co., Ltd., priority 1999, dated 2005).

Assays:
[1] = system: diamond back moth (Plutella xylostella); assay type: in vivo; settings: 1,000 ppm; Chinese cabbage seedling with eggs immersed about 30 seconds; counted six days after the immersion; 25° C.
Text: Insecticidal effect on diamond back moth (Plutella xylostella)
Adult diamond back moths were released and allowed to oviposit on a Chinese cabbage seedling. […] Six days after the immersion, the hatched insects were counted. […] [formula] Criterion • A - - - Mortality 100% • B - - - Mortality 99-90% • C - - - Mortality 89-80% • D - - - Mortality 79-50%

[2] = system: Common cutworm (Spodoptera litura); assay type: in vivo; settings: 500 ppm; cabbage leaf immersed about 30 seconds; second-instar larvae; eight days after the inoculation; 25° C.
Text: Insecticidal Effect on Common cutworm (Spodoptera litura)

[3] = system: rice leafroller (Cnaphalocrosis medinalis); settings: 500 ppm; rice lamina immersed about 30 seconds; third-instar larvae; four days after the inoculation; 25° C., humidity 70%
Description: Insecticidal effect on rice leafroller (Cnaphalocrosis medinalis)
After air-dryness, the lamina was placed in a plastic Petri dish with a diameter of 9 cm whose bottom had been covered with a wetted filter paper. The lamina was inoculated with third-instar larvae of rice leafroller, after which the dish was allowed to stand in a room thermostatted at 25° C. and having a humidity of 70%. Four days after the inoculation, the dead and alive were counted and the insecticidal effect was judged according to the criterion shown in Test Example 1. The test was carried out with triplicate groups of 10 insects.

Structure (SMILES)	insecticidal effect (activity ranking by mortality) [1]	insecticidal effect (activity ranking by mortality) [2]	insecticidal effect (activity ranking by mortality) [3]
CCN(CC)C(=O)c1c(I)cccc1C(=O)Nc1ccc(Cl)cn1 [Q26-32]	B or higher	B or higher	B or higher
CC(C)NC(=O)c1cccc(Cl)c1C(=O)Nc1ccc(Oc2ccc(Cl)cc2Cl)nc1 [Q27-125]	B or higher	B or higher	B or higher
CCN(CC)C(=O)c1c(I)cccc1C(=O)Nc1ncc(C(F)(C(F)(F)F)C(F)(F)F)cc1C [Q26-31]	B or higher	B or higher	B or higher
CCN(CC)C(=O)c1c(I)cccc1C(=O)Nc1ccc(Cl)nc1 [Q27-130]	B or higher	B or higher	B or higher
CC(C)NC(=O)c1c(I)cccc1C(=O)Nc1ccc(C(F)(F)C(F)(F)F)nc1 [Q27-134]	B or higher	B or higher	B or higher
CC(C)NC(=O)c1c(I)cccc1C(=O)Nc1ccc(Cl)nc1 [Q27-133]	B or higher	B or higher	B or higher
CC(C)NC(=O)c1c(Cl)cccc1C(=O)Nc1ccc(Oc2ccc(Br)cc2)nc1 [Q27-29]	B or higher	B or higher	B or higher
CSCC(C)NC(=O)c1c(I)cccc1C(=O)Nc1ccc(C(F)(C(F)(F)F)C(F)(F)F)nc1C (stereo not shown) [Q27-145]	B or higher	B or higher	B or higher
Cc1cc(C(F)(C(F)(F)F)C(F)(F)F)ncc1NC(=O)c1cccc(I)c1C(=O)NC(C)(C)C [Q27-142]	B or higher	B or higher	B or higher
CC(C)NC(=O)c1c(Cl)cccc1C(=O)Nc1ccc(Oc2ccc(Cl)cc2Cl)nc1 [Q27-30]	B or higher	B or higher	B or higher
Cc1cc(Cl)ncc1NC(=O)c1cccc(Cl)c1C(=O)NC(C)C [Q27-81]	B or higher	B or higher	B or higher
CSc1nc(C(F)(C(F)(F)F)C(F)(F)F)ccc1NC(=O)c1cccc(I)c1C(=O)NC(C)C [Q27-246]	B or higher	B or higher	–
Cc1nc(OC(C(F)(F)F)C(F)(F)F)ccc1NC(=O)c1cccc(Cl)c1C(=O)NC(C)C [Q27-297]	B or higher	B or higher	–
CSCC(C)NC(=O)c1c(C(=O)Nc2ccc(OC(C(F)(F)F)C(F)(F)F)nc2C)ccc(Cl)c1Cl (stereo not shown) [Q27-334]	B or higher	B or higher	–
Cc1nc(C(F)(C(F)(F)F)C(F)(F)F)ccc1NC(=O)c1cccc(I)c1C(=O)NC(C)(C)CS(C)(=O)=O [Q27-155]	B or higher	B or higher	–
Cc1nc(C(F)(C(F)(F)F)C(F)(F)F)ccc1NC(=O)c1cccc(I)c1C(=O)NC(C)C [Q27-138]	B or higher	B or higher	B or higher
CC(C)NC(=O)c1cccc(Cl)c1C(=O)Nc1ccc(SC(C)C)nc1 [Q27-126]	B or higher	B or higher	B or higher
CC(C)NC(=O)c1c(Cl)cccc1C(=O)Nc1cnccc1SC(C)C [Q27-31]	B or higher	B or higher	B or higher
Cc1nc(OC(C(F)(F)F)C(F)(F)F)ccc1NC(=O)c1cccc([N+](=O)[O-])c1C(=O)NC(C)C [Q27-347]	B or higher	B or higher	–
CCN(CC)C(=O)c1c(I)cccc1C(=O)Nc1ccc(C(F)(F)C(F)(F)C(F)(F)F)nc1Cl [Q27-129]	B or higher	B or higher	B or higher

Structure (SMILES)	insecticidal effect (activity ranking by mortality) [1]	insecticidal effect (activity ranking by mortality) [2]	insecticidal effect (activity ranking by mortality) [3]
CC(C)NC(=O)c1c(I)cccc1C(=O)Nc1ccc(C(F)(C(F)(F)F)C(F)(F)F)nc1 [Q27-136]	B or higher	B or higher	B or higher
CSCC(C)(C)NC(=O)c1c(I)cccc1C(=O)Nc1c(Cl)cc(C(F)(C(F)(F)F)C(F)(F)F)nc1Cl [Q27-240]	B or higher	B or higher	–
Cc1nc(OC(C(F)(F)F)C(F)(F)F)ccc1NC(=O)c1cccc(C(F)(F)F)c1C(=O)NC(C)(C)C [Q27-355]	B or higher	B or higher	–
CCNC(=O)c1c(I)cccc1C(=O)Nc1cnc(C(F)(C(F)(F)F)C(F)(F)F)cn1 [Q34-46]	B or higher	B or higher	–
CSCC(C)NC(=O)c1c(I)cccc1C(=O)Nc1ccc(OCC(F)(F)C(F)(F)F)nc1C (stereo not shown) [Q27-414]	B or higher	B or higher	–
Cc1nc(OC(F)(F)C(F)OC(F)(F)C(F)(F)C(F)(F)F)ccc1NC(=O)c1cccc(I)c1C(=O)NC(C)C (stereo not shown) [Q27-397]	B or higher	B or higher	–
Cc1nc(OC(C(F)(F)F)C(F)(F)F)ccc1NC(=O)c1cccc([N+](=O)[O-])c1C(=O)NC(C)(C)CS(C)(=O)=O [Q27-353]	B or higher	B or higher	–
Cc1nc(OC(C(F)(F)F)C(F)(F)F)ccc1NC(=O)c1cccc(Cl)c1C(=O)NC(C)(C)C [Q27-298]	B or higher	B or higher	–
CSCC(C)(C)NC(=O)c1c(C(=O)Nc2ccc(OC(C(F)(F)F)C(F)(F)F)nc2C)cccc1[N+](=O)[O-] [Q27-352]	B or higher	B or higher	–
CC(C)NC(=O)c1c(I)cccc1C(=O)Nc1ccc(C(F)(C(F)(F)F)C(F)(F)F)nc1[S+](C)[O-] (stereo not shown) [Q27-247]	B or higher	B or higher	–
CC(C)(CS(C)(=O)=O)NC(=O)c1c(I)cccc1C(=O)Nc1ccc(C(F)(C(F)(F)F)C(F)(F)F)nc1Cl [Q27-236]	B or higher	B or higher	–
CSCC(C)(C)NC(=O)c1c(I)cccc1C(=O)Nc1ccc(C(F)(C(F)(F)F)C(F)(F)F)nc1C [Q27-243]	B or higher	B or higher	–
Cc1nc(OCC(F)(F)C(F)(F)F)ccc1NC(=O)c1cccc(I)c1C(=O)NC(C)C [Q27-413]	B or higher	B or higher	–
CSCC(C)(C)NC(=O)c1c(I)cccc1C(=O)Nc1cnc(C(F)(C(F)(F)F)C(F)(F)F)nc1C [Q32-19]	B or higher	B or higher	–
CSCC(C)NC(=O)c1c(I)cccc1C(=O)Nc1ccc(C(F)(C(F)(F)F)C(F)(F)F)nc1Cl (stereo not shown) [Q27-232]	B or higher	B or higher	–
Cc1nc(OC(C(F)(F)F)C(F)(F)F)ccc1NC(=O)c1ccc(Cl)c(Cl)c1C(=O)NC(C)C[S+](C)[O-] (stereo not shown) [Q27-335]	B or higher	B or higher	–
CC(C)NC(=O)c1c(I)cccc1C(=O)Nc1ccc(C(F)(C(F)(F)F)C(F)(F)F)nc1Cl [Q27-230]	B or higher	B or higher	–
Cc1nc(OC(F)(F)C(F)F)ccc1NC(=O)c1cccc(I)c1C(=O)NC(C)C [Q27-378]	B or higher	B or higher	–
Cc1nc(OC(C(F)(F)F)C(F)(F)F)ccc1NC(=O)c1ccccc1C(=O)NC(C)(C)C[S+](C)[O-] (stereo not shown) [Q27-289]	B or higher	B or higher	–
